Patent US10517889B2, “Modulators of SMAD7 expression” (Ionis Pharmaceuticals, Inc., priority 2017, dated 2019)
Strand notation (5' to 3'): a small letter for the sugar, then the base; units joined by * are phosphorothioate-linked, units joined directly phosphodiester-linked; [ ] holds rarer units or linkages, { } end groups; capitals alone tell only the bases. k = constrained ethyl (cEt); [5mC] = 5-methylcytosine; d = 2'-deoxy (DNA)

System: human SMAD7 mRNA
Assay: Antisense inhibition of human SMAD7 mRNA expression in Hep3B cells by 3-10-3 cEt gapmers, 10,000 nM, electroporation (Example 2)
Type: cell-based
Conditions: Hep3B cells, 10,000 nM antisense oligonucleotide, electroporation, approximately 24 hours, RT-PCR primer probe set RTS5062, relative to untreated control cells
In short: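 Percent inhibition of SMAD7 mRNA, relative to untreated cells, after ~24 h exposure of electroporated Hep3B cells to 10,000 nM cEt gapmer; levels by qRT-PCR, corrected for total RNA.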

Substance | % Inhibition
798819 (kT*k[5mC]*k[5mC]*d[5mC]*dA*dG*dT*dA*dT*dG*d[5mC]*d[5mC]*dA*k[5mC]*k[5mC]*kA; antisense) [compound 798819] | 0%
798820 (kT*k[5mC]*kT*d[5mC]*d[5mC]*dT*d[5mC]*d[5mC]*d[5mC]*dA*dG*dT*dA*kT*kG*k[5mC]; antisense) [compound 798820] | 24%
798821 (kA*kG*k[5mC]*d[5mC]*dT*d[5mC]*d[5mC]*d[5mC]*d[5mC]*dA*d[5mC]*dT*d[5mC]*kT*k[5mC]*kG; antisense) [compound 798821] | 32%
798822 (kG*kT*kA*dG*dA*dG*d[5mC]*d[5mC]*dT*d[5mC]*d[5mC]*d[5mC]*d[5mC]*kA*k[5mC]*kT; antisense) [compound 798822] | 56%
798825 (k[5mC]*kT*kG*dG*dA*d[5mC]*dA*d[5mC]*dA*dG*dT*dA*dG*kA*kG*k[5mC]; antisense) [compound 798825] | 24%
798826 (k[5mC]*kT*k[5mC]*d[5mC]*dT*dG*dG*dA*d[5mC]*dA*d[5mC]*dA*dG*kT*kA*kG; antisense) [compound 798826] | 14%
798827 (kA*kG*kA*dG*dA*dG*dG*dG*d[5mC]*dT*d[5mC]*d[5mC]*dT*kG*kG*kA; antisense) [compound 798827] | 21%
798835 (k[5mC]*kG*kA*dG*dG*d[5mC]*dA*dA*dA*dA*dG*d[5mC]*d[5mC]*kA*kT*kT; antisense) [compound 798835] | 22%
798836 (kG*kT*k[5mC]*d[5mC]*dG*dA*dG*dG*d[5mC]*dA*dA*dA*dA*kG*k[5mC]*k[5mC]; antisense) [compound 798836] | 56%
798837 (kG*k[5mC]*kT*dG*dT*d[5mC]*d[5mC]*dG*dA*dG*dG*d[5mC]*dA*kA*kA*kA; antisense) [compound 798837] | 33%
798838 (k[5mC]*k[5mC]*kG*dA*dA*dT*dT*dG*dA*dG*d[5mC]*dT*dG*kT*k[5mC]*k[5mC]; antisense) [compound 798838] | 58%
798839 (kG*kT*kT*dG*dT*d[5mC]*d[5mC]*dG*dA*dA*dT*dT*dG*kA*kG*k[5mC]; antisense) [compound 798839] | 47%
798840 (k[5mC]*kT*k[5mC]*dT*dT*dG*dT*dT*dG*dT*d[5mC]*d[5mC]*dG*kA*kA*kT; antisense) [compound 798840] | 56%
798841 (k[5mC]*kT*kG*dA*d[5mC]*dT*d[5mC]*dT*dT*dG*dT*dT*dG*kT*k[5mC]*k[5mC]; antisense) [compound 798841] | 0%
798842 (k[5mC]*kA*kG*d[5mC]*dT*dG*dA*d[5mC]*dT*d[5mC]*dT*dT*dG*kT*kT*kG; antisense) [compound 798842] | 0%

Same assay, conditions: Hep3B cells, electroporation with 10,000 nM antisense oligonucleotide, approximately 24 hours, SMAD7 mRNA by RT-PCR (RTS5062), relative to untreated control cells

Substance | % Inhibition
798811 (k[5mC]*kA*kG*dA*dA*dG*dA*dA*dG*dT*dT*dG*dG*kG*kA*kA; antisense) [compound 798811] | 1%
798812 (k[5mC]*kT*k[5mC]*d[5mC]*dA*dG*dA*dA*dG*dA*dA*dG*dT*kT*kG*kG; antisense) [compound 798812] | 0%
798813 (k[5mC]*k[5mC]*kG*dA*dT*d[5mC]*d[5mC]*d[5mC]*d[5mC]*dA*dG*dG*d[5mC]*kT*k[5mC]*k[5mC]; antisense) [compound 798813] | 23%
798814 (kA*k[5mC]*k[5mC]*dA*dG*dT*dG*dT*dG*dA*d[5mC]*d[5mC]*dG*kA*kT*k[5mC]; antisense) [compound 798814] | 25%
798815 (k[5mC]*kG*k[5mC]*dA*d[5mC]*d[5mC]*dA*dG*dT*dG*dT*dG*dA*k[5mC]*k[5mC]*kG; antisense) [compound 798815] | 45%
798816 (k[5mC]*k[5mC]*kA*d[5mC]*dG*d[5mC]*dA*d[5mC]*d[5mC]*dA*dG*dT*dG*kT*kG*kA; antisense) [compound 798816] | 24%
798817 (kG*k[5mC]*k[5mC]*dA*d[5mC]*d[5mC]*dA*d[5mC]*dG*d[5mC]*dA*d[5mC]*d[5mC]*kA*kG*kT; antisense) [compound 798817] | 26%
798818 (kT*kA*kT*dG*d[5mC]*d[5mC]*dA*d[5mC]*d[5mC]*dA*d[5mC]*dG*d[5mC]*kA*k[5mC]*k[5mC]; antisense) [compound 798818] | 63%
798828 (kA*kT*k[5mC]*d[5mC]*dA*dG*dA*dG*dA*dG*dG*dG*d[5mC]*kT*k[5mC]*k[5mC]; antisense) [compound 798828] | 18%
798829 (kG*kA*kT*dA*dT*d[5mC]*d[5mC]*dA*dG*dA*dG*dA*dG*kG*kG*k[5mC]; antisense) [compound 798829] | 0%
798830 (kG*kA*kA*dG*dA*dT*dA*dT*d[5mC]*d[5mC]*dA*dG*dA*kG*kA*kG; antisense) [compound 798830] | 17%
798831 (kA*kT*kA*dG*dA*dA*dG*dA*dT*dA*dT*d[5mC]*d[5mC]*kA*kG*kA; antisense) [compound 798831] | 0%
798832 (kA*kT*k[5mC]*dA*dT*dA*dG*dA*dA*dG*dA*dT*dA*kT*k[5mC]*k[5mC]; antisense) [compound 798832] | 41%
798833 (kT*kA*kG*dA*dT*d[5mC]*dA*dT*dA*dG*dA*dA*dG*kA*kT*kA; antisense) [compound 798833] | 48%
798834 (kA*kA*kA*dA*dG*d[5mC]*d[5mC]*dA*dT*dT*d[5mC]*d[5mC]*d[5mC]*k[5mC]*kT*kG; antisense) [compound 798834] | 55%
798843 (k[5mC]*kT*kG*d[5mC]*dA*d[5mC]*d[5mC]*dA*dG*d[5mC]*dT*dG*dA*k[5mC]*kT*k[5mC]; antisense) [compound 798843] | 37%
798844 (kA*k[5mC]*k[5mC]*dT*dT*d[5mC]*dT*dG*d[5mC]*dA*d[5mC]*d[5mC]*dA*kG*k[5mC]*kT; antisense) [compound 798844] | 30%
798845 (k[5mC]*kG*k[5mC]*dA*d[5mC]*d[5mC]*dT*dT*d[5mC]*dT*dG*d[5mC]*dA*k[5mC]*k[5mC]*kA; antisense) [compound 798845] | 18%
798846 (k[5mC]*kT*k[5mC]*d[5mC]*dG*d[5mC]*dA*d[5mC]*d[5mC]*dT*dT*d[5mC]*dT*kG*k[5mC]*kA; antisense) [compound 798846] | 40%
798847 (kT*kT*kG*d[5mC]*dT*d[5mC]*d[5mC]*dG*d[5mC]*dA*d[5mC]*d[5mC]*dT*kT*k[5mC]*kT; antisense) [compound 798847] | 24%
798848 (kG*kA*kT*dT*dT*dT*dG*d[5mC]*dT*d[5mC]*d[5mC]*dG*d[5mC]*kA*k[5mC]*k[5mC]; antisense) [compound 798848] | 40%
798849 (k[5mC]*kA*kG*d[5mC]*d[5mC]*dG*dA*dT*dT*dT*dT*dG*d[5mC]*kT*k[5mC]*k[5mC]; antisense) [compound 798849] | 21%
798850 (k[5mC]*kA*kG*d[5mC]*dT*dG*dG*dA*dT*dG*d[5mC]*d[5mC]*dG*k[5mC]*kA*kG; antisense) [compound 798850] | 12%
798851 (kA*k[5mC]*k[5mC]*dA*dT*d[5mC]*d[5mC]*dA*d[5mC]*d[5mC]*dT*d[5mC]*d[5mC]*k[5mC]*kG*k[5mC]; antisense) [compound 798851] | 21%
